# Experimental data taken from PubChem BioAssay AID2060896 (Molecular Pharmacology Branch, DTP, NCI, 2025).
# System: 941728-121-R-J1-PDC complex spheroid viability
# Assay: Anticancer human tumor 941728-121-R-J1-PDC patient-derived lung adenocarcinoma cell line growth inhibition [RAS]
# Conditions: for IC50: curve of first compound; for viability, T/C: stronger effect = lower value
# Source text: RAS pathway inhibitors in Combinations in Complex Spheroids
# A high-throughput screen of multi-cell type tumor spheroids was designed to identify active combinations of RAS pathway inhibitors and targeted small molecules. Complex spheroids include a stromal component modeled by human endothelial cells (HUVEC) and fibroblasts modeled by human mesenchymal stem cells (MSCs). The concentration ranges selected for each drug and investigational agent were based upon clinically achievable concentrations if the clinical Cmax of the agent was known.
# Compounds. The drugs and investigational agents: abemaciclib (NSC768073), cobimetinib (NSC768068), divarasib (GDC6063, NSC841802), docetaxel (NSC628503), GDC-1971 (RLY-1971, NSC841576), gemcitabine (NSC613327), inavolisib (NSC800729), ipatasertib (NSC767898), KB-0742 (NSC834161), MRTX-1133 (NSC836407), osimertinib (NSC779217), RMC-4630 (NSC839698), RMC-6236 (NSC851965), RMC-6291 (NSC852671), Ro-3306 (NSC812927), sapanisertib (NSC764658), SN-38 (NSC673596), staurosporine (NSC755774), SY5609 (NSC837396), and tovorafenib (DAY101, NSC766906), were obtained from the National Cancer Institute (NCI) Developmental Therapeutics Program Chemical Repository. The FDA-approved anticancer drug set is available from the NCI Developmental Therapeutics Program. […] The stock solutions were prepared in dimethyl sulfoxide (DMSO, Sigma-Aldrich, St. Louis, MO, cat. D2650) at 800-fold the tested concentration and stored at -70 degrees C prior to their use. All drugs and investigational agents were tested over a range starting from a high concentration at or near the clinical Cmax and decreasing in half-log increments. If the clinical Cmax for an agent had not been determined, the highest concentration tested was 10 microM.
# Cell Culture. All cells were maintained in an incubator at 37 degrees C and 5% CO2 with 95% humidity. The PDC lines were cultured according to standard operating procedures established by the NCI PDMR. All PDCs were thawed and cultured in Matrigel-coated flasks prepared with a working solution of 1X Ham's F-12 nutrient mix, without supplementation (Invitrogen, Waltham, MA, cat. 11765054), 100 U/mL penicillin-streptomycin (Invitrogen, cat. 15140122), and 2.5% Matrigel (Corning Inc., Corning, NY, cat. 354248) for the first three passages. The 362531-283-R-J2-PDC and 782815-120-R-J1-PDC lines were cultured in 6C/Colon 1B media, which includes advanced DMEM/F-12 (Thermo Fisher Scientific, cat. 12634028), 10 mM HEPES (Thermo Fisher Scientific, cat. 15630080), 1X GlutaMAX supplement (Thermo Fisher Scientific, cat. 35050061), 0.1 mg/mL primocin (InvivoGen, San Diego, CA, cat. ant-pm-2), 10% defined fetal bovine serum, heat inactivated (HyClone Laboratories Inc., Logan, UT, cat. SH30070.03HI), 50% L-WRN conditioned media (ATCC, cat. CRL-3276), 1.25 mM N-Acetyl-L-cysteine (Sigma-Aldrich, cat. A9165), 10 mM nicotinamide (Sigma-Aldrich, cat. N0636), 1X B-27 supplement (Thermo Fisher Scientific, cat. 17504044), 1X N-2 supplement (Thermo Fisher Scientific, cat. 17502048), 50 ng/mL human EGF (Thermo Fisher Scientific, cat. PHG0311), and 10 microM Y-27632 dihydrochloride (Tocris Bioscience, cat. 1254). The K12877-001-R-J1-PDC line was cultured in 6I media, which includes all 6C/Colon 1B media plus 10 ng/mL human FGF-10 (PeproTech, cat. 100-26), 1 ng/mL human FGF-2 (PeproTech, cat. 100-18B), 1 µM prostaglandin E2 (Tocris Bioscience, cat. 2296), […] hydrocortisone (Sigma-Aldrich, cat. H4001), and […] bovine insulin (Sigma-Aldrich, cat. I6634). The K86415-001-R-J1-PDC line was cultured in 6D media, which includes all 6C/Colon 1B media components minus the L-WRN conditioned media. The 485176-168-R4-J1-PDC was cultured in PANC media, which includes all 6C/Colon 1B media plus 100 ng/mL human FGF-10 (PeproTech, cat. 100-26), 500 nM SB-431542 (Selleckchem, cat. S1067), and 10 nM gastrin (Tocris Bioscience, cat. 3006). […]
# [1] = second compound 0.0316 µM, first compound 0.0316 µM
# [2] = second compound 0.0316 µM, first compound 0.1 µM
# [3] = second compound 0.0316 µM, first compound 0.316 µM
# [4] = second compound 0.0316 µM, first compound 1 µM
# [5] = second compound 0.0316 µM, first compound 3.16 µM
# [6] = second compound 0.0316 µM, first compound 10 µM
# [7] = second compound 0.1 µM, first compound 0.0316 µM
# [8] = second compound 0.1 µM, first compound 0.1 µM
# [9] = second compound 0.1 µM, first compound 0.316 µM
# [10] = second compound 0.1 µM, first compound 1 µM
# [11] = second compound 0.1 µM, first compound 3.16 µM
# [12] = second compound 0.1 µM, first compound 10 µM
# [13] = second compound 0.316 µM, first compound 0.0316 µM
# [14] = second compound 0.316 µM, first compound 0.1 µM
# [15] = second compound 0.316 µM, first compound 0.316 µM
# [16] = second compound 0.316 µM, first compound 1 µM
# [17] = second compound 0.316 µM, first compound 3.16 µM
# [18] = second compound 0.316 µM, first compound 10 µM
# [19] = second compound 1 µM, first compound 0.0316 µM
# [20] = second compound 1 µM, first compound 0.1 µM
# [21] = second compound 1 µM, first compound 0.316 µM
# [22] = second compound 1 µM, first compound 1 µM
# [23] = second compound 1 µM, first compound 3.16 µM
# [24] = second compound 1 µM, first compound 10 µM
# [25] = second compound 3.16 µM, first compound 0.0316 µM
# [26] = second compound 3.16 µM, first compound 0.1 µM
# [27] = second compound 3.16 µM, first compound 0.316 µM
# [28] = second compound 3.16 µM, first compound 1 µM
# [29] = second compound 3.16 µM, first compound 3.16 µM
# [30] = second compound 3.16 µM, first compound 10 µM
# [31] = second compound 10 µM, first compound 0.0316 µM
# [32] = second compound 10 µM, first compound 0.1 µM
# [33] = second compound 10 µM, first compound 0.316 µM
# [34] = second compound 10 µM, first compound 1 µM
# [35] = second compound 10 µM, first compound 3.16 µM
# [36] = second compound 10 µM, first compound 10 µM
# 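Note: spheroids exposed to compounds for 7 days before readout.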
# 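Throughout, for viability, T/C: 100% = DMSO vehicle control viability.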
smiles,measurement,setting,value
CC1(O)CCCC1n1c(=O)c(C(F)F)cc2cnc(NC3CCN(S(C)(=O)=O)CC3)nc21 (stereo unspecified) + C#Cc1c(F)ccc2cc(O)cc(-c3ncc4c(N5CC6CCC(C5)N6)nc(OCC56CCCN5CC(F)C6)nc4c3F)c12,IC50,second compound 0.0316 µM,6.75 µM
same,IC50,second compound 0.1 µM,6.76 µM
same,IC50,second compound 0.316 µM,> 10 µM
same,IC50,second compound 1 µM,< 0.0316 µM
same,IC50,second compound 3.16 µM,< 0.0316 µM
same,IC50,second compound 10 µM,< 0.0316 µM
same,"viability, T/C",[1],69.8%
same,"viability, T/C",[2],75%
same,"viability, T/C",[3],71.9%
same,"viability, T/C",[4],80.1%
same,"viability, T/C",[5],81.7%
same,"viability, T/C",[6],36.7%
same,"viability, T/C",[7],69.4%
same,"viability, T/C",[8],72%
same,"viability, T/C",[9],62.6%
same,"viability, T/C",[10],68.7%
same,"viability, T/C",[11],75.7%
same,"viability, T/C",[12],40%
same,"viability, T/C",[13],56.2%
same,"viability, T/C",[14],51.5%
same,"viability, T/C",[15],51.2%
same,"viability, T/C",[16],65.6%
same,"viability, T/C",[17],65%
same,"viability, T/C",[18],39.9%
same,"viability, T/C",[19],44.2%
same,"viability, T/C",[20],38.9%
same,"viability, T/C",[21],46.9%
same,"viability, T/C",[22],50.3%
same,"viability, T/C",[23],55.3%
same,"viability, T/C",[24],36%
same,"viability, T/C",[25],30.1%
same,"viability, T/C",[26],33%
same,"viability, T/C",[27],36.5%
same,"viability, T/C",[28],36.9%
same,"viability, T/C",[29],38.5%
same,"viability, T/C",[30],28.6%
same,"viability, T/C",[31],25.6%
same,"viability, T/C",[32],26.6%
same,"viability, T/C",[33],28%
same,"viability, T/C",[34],28.1%
same,"viability, T/C",[35],28%
same,"viability, T/C",[36],24%
CCN1CCN(Cc2ccc(Nc3ncc(F)c(-c4cc(F)c5nc(C)n(C(C)C)c5c4)n3)nc2)CC1 + C#Cc1c(F)ccc2cc(O)cc(-c3ncc4c(N5CC6CCC(C5)N6)nc(OCC56CCCN5CC(F)C6)nc4c3F)c12,IC50,second compound 0.0316 µM,> 1 µM
same,IC50,second compound 0.1 µM,> 1 µM
same,IC50,second compound 0.316 µM,> 1 µM
same,IC50,second compound 1 µM,< 0.00316 µM
same,IC50,second compound 3.16 µM,< 0.00316 µM
same,IC50,second compound 10 µM,< 0.00316 µM
same,"viability, T/C","second compound 0.0316 µM, first compound 0.00316 µM",75.4%
same,"viability, T/C","second compound 0.0316 µM, first compound 0.01 µM",70.4%
same,"viability, T/C",[1],58%
same,"viability, T/C",[2],49%
same,"viability, T/C",[3],58%
same,"viability, T/C",[4],59.7%
same,"viability, T/C","second compound 0.1 µM, first compound 0.00316 µM",71.4%
same,"viability, T/C","second compound 0.1 µM, first compound 0.01 µM",62%
same,"viability, T/C",[7],52.9%
same,"viability, T/C",[8],46.7%
same,"viability, T/C",[9],55.9%
same,"viability, T/C",[10],68.9%
same,"viability, T/C","second compound 0.316 µM, first compound 0.00316 µM",55.6%
same,"viability, T/C","second compound 0.316 µM, first compound 0.01 µM",56.8%
same,"viability, T/C",[13],38.3%
same,"viability, T/C",[14],45.2%
same,"viability, T/C",[15],51%
same,"viability, T/C",[16],57.3%
same,"viability, T/C","second compound 1 µM, first compound 0.00316 µM",38.2%
same,"viability, T/C","second compound 1 µM, first compound 0.01 µM",34.7%
same,"viability, T/C",[19],31.4%
same,"viability, T/C",[20],35.5%
same,"viability, T/C",[21],41.7%
same,"viability, T/C",[22],50.1%
same,"viability, T/C","second compound 3.16 µM, first compound 0.00316 µM",28.8%
same,"viability, T/C","second compound 3.16 µM, first compound 0.01 µM",26.4%
same,"viability, T/C",[25],31.3%
same,"viability, T/C",[26],25.3%
same,"viability, T/C",[27],30.9%
same,"viability, T/C",[28],36.2%
same,"viability, T/C","second compound 10 µM, first compound 0.00316 µM",23.5%
same,"viability, T/C","second compound 10 µM, first compound 0.01 µM",20.9%
same,"viability, T/C",[31],21.9%
same,"viability, T/C",[32],19.8%
same,"viability, T/C",[33],18.4%
same,"viability, T/C",[34],16.5%
C[C@@H](NC(=O)c1ncnc(N)c1Cl)c1ncc(C(=O)Nc2cc(C(F)(F)F)c(Cl)cn2)s1 + C#Cc1c(F)ccc2cc(O)cc(-c3ncc4c(N5CC6CCC(C5)N6)nc(OCC56CCCN5CC(F)C6)nc4c3F)c12,IC50,second compound 0.0316 µM,7 µM
same,IC50,second compound 0.1 µM,7.1 µM
same,IC50,second compound 0.316 µM,2.68 µM
same,IC50,second compound 1 µM,< 0.0316 µM
same,IC50,second compound 3.16 µM,< 0.0316 µM
same,IC50,second compound 10 µM,< 0.0316 µM
same,"viability, T/C",[1],107%
same,"viability, T/C",[2],102%
same,"viability, T/C",[3],108%
same,"viability, T/C",[4],94.4%
same,"viability, T/C",[5],72.5%
same,"viability, T/C",[6],40%
same,"viability, T/C",[7],102%
same,"viability, T/C",[8],109%
same,"viability, T/C",[9],103%
same,"viability, T/C",[10],102%
same,"viability, T/C",[11],76.3%
same,"viability, T/C",[12],38.9%
same,"viability, T/C",[13],69.7%
same,"viability, T/C",[14],79.6%
same,"viability, T/C",[15],69.6%
same,"viability, T/C",[16],60.2%
same,"viability, T/C",[17],49.2%
same,"viability, T/C",[18],37.1%
same,"viability, T/C",[19],46.2%
same,"viability, T/C",[20],48.5%
same,"viability, T/C",[21],45.3%
same,"viability, T/C",[22],39.4%
same,"viability, T/C",[23],38.4%
same,"viability, T/C",[24],29.4%
same,"viability, T/C",[25],30%
same,"viability, T/C",[26],32.5%
same,"viability, T/C",[27],28.2%
same,"viability, T/C",[28],26.5%
same,"viability, T/C",[29],30.2%
same,"viability, T/C",[30],28.1%
same,"viability, T/C",[31],24.4%
same,"viability, T/C",[32],25.2%
same,"viability, T/C",[33],25.3%
same,"viability, T/C",[34],26.2%
same,"viability, T/C",[35],25%
same,"viability, T/C",[36],21.7%
